Measurements as given in patent US11673916B2, “Neuroprotective peptides and methods of their use” (University of Pittsburgh—Of the Commonwealth System of …, priority 2020, dated 2023).

Experiments:
cortical neurons = assay: Cell toxicity assay (LDH release) after excitotoxic TBOA treatment; type: cell-based, rat; details: 3 μM peptide, TBOA 60 μM, LDH 24 h after initial TBOA treatment, mean±SEM (FIG. 4D)
Description: Cortical neurons were pre-treated with vehicle, TAT-DP-2 (3 μM), or TAT-Sc-2 (3 μM) for 2 hours in HEPES-buffered minimal essential media with 0.01% bovine serum albumin (MHB). Next, cells with the same peptide concentrations along with either vehicle or 60 μM DL-threo-β-benzyloxyaspartic acid (TBOA) for 6 hours. Each well was washed two times with either 0.5 mL of vehicle or 60 μM TBOA and neurons were incubated overnight. Twenty-four hours following initial TBOA treatment, media was collected for lactate dehydrogenase assays (Sigma Aldrich, St. Louis, Mo.). Relative toxicity was quantified by calculating the ratio of LDH concentration in TBOA-treated over non-TBOA-treated wells. […]
With evidence that TAT-DP-2-mediated declustering prevents enhancement of pro-apoptotic Kv2.1 potassium currents following injury, the neuroprotective actions of TAT-DP-2 in cortical neurons in vitro were next tested. […] Neurotoxicity was assessed by the release of lactate dehydrogenase (LDH) into the culture medium, as described previously (Aras, et al., Curr Protoc Neurosci. 44: 7.18.1-7.18.15, 2008). […] Based on these findings, the potential neuroprotective actions of TAT-DP-2 were evaluated in an in vivo model of ischemia-reperfusion injury, where a substantial contribution of Kv2.1-enabled neuronal cell death has been previously observed (Yeh et al., J Neurosci. 37: 5648-5658, 2017).

[1] = tested on: MCAo mouse model of ischemic stroke; assay: Transient middle cerebral artery occlusion (MCAo), infarct ratio by TTC staining; type: in vivo; details: 50 minutes MCAo, IP peptide at one and six hours after reperfusion, 24 h after reperfusion, mean±SEM (FIG. 6D)
Description: Mice were anesthetized with isoflurane and the common carotid artery was exposed. A single-use silicon-coated suture (MCAo suture #602256PK10; Doccol Corporation, Sharron, Mass.) was advanced 8-9 mm into the internal carotid artery, occluding the MCA. The suture was secured with 6-0 silk ligatures for 50 minutes, then removed. Twenty-four hours following cerebral reperfusion, mice were sacrificed and four 2-mm coronal brain sections were obtained from each animal. Sections were stained with 0.05% 2,3,5-triphenyltetrazolium chloride (TTC) in PBS for 30 minutes at room temperature. Brain sections were digitally scanned following staining and a blinded experimenter measured infarct ratios (infarct area/total section area) using NIH ImageJ software. Visual representation of this protocol is in FIG. 6B.
The neuroprotective efficacy of TAT-DP-2 in vivo was next tested. […]
Twenty-four hours following cerebral reperfusion after MCAo, total infarct ratios were analyzed (FIG. 6B) in tetrazolium chloride-stained brain sections (FIGS. 6B and 6C). […] A different, blinded observer then analyzed each animal and assigned an objective murine neurological score (MNS; Table 3) to each mouse over a 42-day period. As the MNS is based solely on characteristic motor deficits developed following left MCAo, all animals initially scored zero on the scale.

## YGRKKRRQRRRDFSSIST [TAT-Sc-2, TAT-linked scramble control peptide]
Cortical neurons
  mean relative toxicity ([LDH]TBOA/[LDH]Veh): 1.57±0.15
[1]
  mean total infarct ratio: 0.121±0.009

## YGRKKRRQRRRSIDSFTS [TAT-DP-2, TAT-linked declustering peptide 2]
Cortical neurons
  mean relative toxicity ([LDH]TBOA/[LDH]Veh): 1.01±0.15
[1]
  mean total infarct ratio: 0.071±0.020
